Experimental data published in patent publication US6726908B2, “Pharmaceutical formulation” (SmithKline Beecham p.l.c., priority 1995, dated 2004).
Values after ≈ are worked out from the molar mass of the structure shown. Like-named read-outs stand apart in the source and are kept apart here.

How the values were obtained:
Assay type in all cases: cell-based, Streptococcus pneumoniae
S Pneumoniae 14319 = test: MIC against resistant S Pneumoniae strain 14319
S Pneumoniae N1387 = test: MIC against resistant S Pneumoniae strain N1387
S Pneumoniae 410101 = test: MIC against resistant S Pneumoniae strain 410101
[1] = Streptococcus pneumoniae, read-out: MIC

Row | MIC (S Pneumoniae 14319; [1]) | MIC (S Pneumoniae N1387; [1]) | MIC (S Pneumoniae 410101; [1]) | MIC (S Pneumoniae 14319) | MIC (S Pneumoniae N1387) | MIC (S Pneumoniae 410101) | SMILES
1 | 4 µg/mL (≈ 10.9 µM) | 2 µg/mL (≈ 5.47 µM) | 4 µg/mL (≈ 10.9 µM) | – | – | – | CC1(C)S[C@@H]2[C@H](NC(=O)[C@H](N)c3ccc(O)cc3)C(=O)N2[C@H]1C(=O)O [Amoxycillin]
2 | – | – | – | 8 µg/mL (≈ 23.9 µM) | 2 µg/mL (≈ 5.98 µM) | 4 µg/mL (≈ 12 µM) | CC1(C)S[C@@H]2[C@H](NC(=O)Cc3ccccc3)C(=O)N2[C@H]1C(=O)O [Penicillin G]
